Measurements as given in the supplement of paper PMC10307832.

How the values were obtained:
Assay in all cases: relative viability (nuclei count vs DMSO), 5 days (fraction); higher = more cells survive
Dinaciclib + Palbociclib = compound: CCc1cnn2c(NCc3ccc[n+]([O-])c3)cc(N3CCCC[C@H]3CCO)nc12 [Dinaciclib] + CC(=O)c1c(C)c2cnc(Nc3ccc(N4CCNCC4)cn3)nc2n(C2CCCC2)c1=O [Palbociclib] (partner 0.5 µM)
How it was run: (§1)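 Relative viability equals treated-well nuclei counts divided by vehicle-well nuclei counts. Counts came from 4× images of lung cancer cell lines grown in 1536-well plates for 5 days after pin-tool dosing on the day after seeding. Dosing used one drug alone or a fixed anchor-drug dose plus five library-drug doses (not always all listed) in √10 steps, and values are medians of duplicate plates.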

Dinaciclib + Bortezomib = compound: CCc1cnn2c(NCc3ccc[n+]([O-])c3)cc(N3CCCC[C@H]3CCO)nc12 [Dinaciclib] + CC(C)C[C@H](NC(=O)[C@H](Cc1ccccc1)NC(=O)c1cnccn1)B(O)O [Bortezomib] (partner 0.002 µM)
How it was run: as §1

Dinaciclib + Foretinib = compound: CCc1cnn2c(NCc3ccc[n+]([O-])c3)cc(N3CCCC[C@H]3CCO)nc12 [Dinaciclib] + COc1cc2c(Oc3ccc(NC(=O)C4(C(=O)Nc5ccc(F)cc5)CC4)cc3F)ccnc2cc1OCCCN1CCOCC1 [Foretinib] (partner 0.25 µM)
How it was run: as §1

Dinaciclib + Pemetrexed = compound: CCc1cnn2c(NCc3ccc[n+]([O-])c3)cc(N3CCCC[C@H]3CCO)nc12 [Dinaciclib] + Nc1nc2[nH]cc(CCc3ccc(C(=O)N[C@@H](CCC(=O)O)C(=O)O)cc3)c2c(=O)[nH]1 [Pemetrexed] (partner 0.2 µM)
How it was run: as §1

Dinaciclib + Decitabine = compound: CCc1cnn2c(NCc3ccc[n+]([O-])c3)cc(N3CCCC[C@H]3CCO)nc12 [Dinaciclib] + Nc1ncn([C@H]2C[C@H](O)[C@@H](CO)O2)c(=O)n1 [Decitabine] (partner 2 µM)
How it was run: as §1

| Cell Line | relative viability (Dinaciclib + Palbociclib; first compound 0.009487 µM) | relative viability (Dinaciclib + Palbociclib; first compound 0.03 µM) | relative viability (Dinaciclib + Palbociclib; first compound 0.09487 µM) | relative viability (Dinaciclib + Palbociclib; first compound 0.3 µM) | relative viability (Dinaciclib + Bortezomib; first compound 0.009487 µM) | relative viability (Dinaciclib + Bortezomib; first compound 0.03 µM) | relative viability (Dinaciclib + Bortezomib; first compound 0.09487 µM) | relative viability (Dinaciclib + Bortezomib; first compound 0.3 µM) | relative viability (Dinaciclib + Foretinib; first compound 0.009487 µM) | relative viability (Dinaciclib + Foretinib; first compound 0.03 µM) | relative viability (Dinaciclib + Foretinib; first compound 0.09487 µM) | relative viability (Dinaciclib + Foretinib; first compound 0.3 µM) | relative viability (Dinaciclib + Pemetrexed; first compound 0.009487 µM) | relative viability (Dinaciclib + Pemetrexed; first compound 0.03 µM) | relative viability (Dinaciclib + Pemetrexed; first compound 0.09487 µM) | relative viability (Dinaciclib + Pemetrexed; first compound 0.3 µM) | relative viability (Dinaciclib + Decitabine; first compound 0.009487 µM) | relative viability (Dinaciclib + Decitabine; first compound 0.03 µM) | relative viability (Dinaciclib + Decitabine; first compound 0.09487 µM) | relative viability (Dinaciclib + Decitabine; first compound 0.3 µM) |
| --- | --- | --- | --- | --- | --- | --- | --- | --- | --- | --- | --- | --- | --- | --- | --- | --- | --- | --- | --- | --- |
| HCC-366 | 0.272 | 0.0382 | 0.0205 | 0.0359 | 0.779 | 0.0262 | 0.0219 | 0.0175 | 0.851 | 0.0324 | 0.042 | 0.0348 | 0.171 | 0.0414 | 0.0345 | 0.0329 | 0.237 | 0.133 | 0.0321 | 0.0394 |
| HCC-827 | 0.387 | 0.169 | 0.14 | 0.121 | 0.986 | 0.746 | 0.213 | 0.178 | 1.09 | 0.682 | 0.147 | 0.13 | 0.27 | 0.129 | 0.122 | 0.13 | 0.351 | 0.131 | 0.12 | 0.137 |
| HOP-62 | 0.465 | 0.187 | 0.071 | 0.0775 | 0.643 | 0.0795 | 0.0423 | 0.0609 | 1.11 | 0.376 | 0.0923 | 0.0743 | 0.255 | 0.0991 | 0.094 | 0.0662 | 0.204 | 0.21 | 0.0932 | 0.0689 |
| IA-LM | – | – | – | – | 0.72 | 0.0186 | 0.019 | 0.014 | 1.01 | 0.0352 | 0.0148 | 0.0125 | – | – | – | – | – | – | – | – |
| LC-2-ad | 0.411 | 0.204 | 0.114 | 0.136 | 1.05 | 0.0825 | 0.0622 | 0.0691 | 0.824 | 0.248 | 0.205 | 0.195 | 0.28 | 0.158 | 0.14 | 0.131 | 0.745 | 0.541 | 0.158 | 0.151 |
| LK-2 | 0.543 | 0.109 | 0.107 | 0.0837 | – | – | – | – | 1.13 | 0.267 | 0.164 | 0.142 | 0.38 | 0.0867 | 0.0811 | 0.0749 | 0.27 | 0.119 | 0.0855 | 0.0805 |
| NCI-H358 | 0.142 | 0.095 | 0.0882 | 0.096 | – | – | – | – | 0.493 | 0.0864 | 0.0847 | 0.0882 | 0.186 | 0.108 | 0.0948 | 0.0955 | 0.157 | 0.0817 | 0.075 | 0.0916 |
| NCI-H522 | 1.19 | 0.855 | 0.316 | 0.255 | – | – | – | – | – | – | – | – | 1.32 | 1.14 | 0.371 | 0.25 | 0.688 | 0.65 | 0.347 | 0.326 |
| NCI-H596 | – | – | – | – | 1.22 | 0.563 | 0.263 | 0.239 | 0.861 | 0.547 | 0.176 | 0.178 | 0.404 | 0.396 | 0.24 | 0.225 | 1.48 | 0.839 | 0.271 | 0.258 |
| NCI-H727 | 0.633 | 0.38 | 0.361 | 0.383 | 0.869 | 0.231 | 0.217 | 0.238 | 1.05 | 0.283 | 0.259 | 0.249 | – | – | – | – | 0.916 | 0.37 | 0.413 | 0.373 |
| NCI-H1395 | 0.596 | 0.311 | 0.248 | 0.248 | – | – | – | – | 1.18 | 0.335 | 0.269 | 0.252 | 0.505 | 0.231 | 0.213 | 0.26 | 0.649 | 0.286 | 0.286 | 0.251 |
| NCI-H1563 | – | – | – | – | 1.13 | 0.485 | 0.368 | 0.387 | 1.14 | 0.504 | 0.327 | 0.291 | 0.704 | 0.393 | 0.161 | 0.13 | – | – | – | – |
| NCI-H1703 | – | – | – | – | 0.366 | 0.122 | 0.132 | 0.114 | 0.39 | 0.319 | 0.144 | 0.12 | – | – | – | – | – | – | – | – |
| NCI-H1792 | 0.677 | 0.365 | 0.217 | 0.152 | 0.925 | 0.741 | 0.238 | 0.0774 | – | – | – | – | 0.561 | 0.14 | 0.0501 | 0.0374 | 0.522 | 0.373 | 0.0508 | 0.0591 |
| NCI-H1793 | 0.251 | 0.168 | 0.131 | 0.135 | – | – | – | – | 0.344 | 0.171 | 0.141 | 0.143 | 0.63 | 0.139 | 0.142 | 0.13 | 0.488 | 0.206 | 0.127 | 0.149 |
| NCI-H1944 | 0.39 | 0.13 | 0.147 | 0.123 | – | – | – | – | 0.892 | 0.191 | 0.152 | 0.134 | 0.712 | 0.119 | 0.14 | 0.136 | 0.44 | 0.199 | 0.137 | 0.156 |
| NCI-H2170 | 0.387 | 0.122 | 0.103 | 0.117 | – | – | – | – | 0.901 | 0.281 | 0.189 | 0.194 | 0.292 | 0.133 | 0.125 | 0.119 | 0.471 | 0.212 | 0.141 | 0.146 |
| NCI-H2228 | 0.651 | 0.115 | 0.0872 | 0.0982 | 0.934 | 0.0992 | 0.119 | 0.102 | 0.87 | 0.36 | 0.104 | 0.11 | 0.309 | 0.152 | 0.0897 | 0.0862 | – | – | – | – |
| SK-MES-1 | 0.327 | 0.179 | 0.18 | 0.154 | – | – | – | – | 0.962 | 0.189 | 0.135 | 0.137 | 0.799 | 0.192 | 0.179 | 0.168 | 0.362 | 0.157 | 0.156 | 0.166 |
| SW 900 | 0.57 | 0.318 | 0.13 | 0.158 | – | – | – | – | 0.874 | 0.462 | 0.0641 | 0.0639 | 0.448 | 0.195 | 0.166 | 0.153 | 0.408 | 0.325 | 0.182 | 0.151 |
